Laboratory results from PubChem BioAssay (NCI).
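Briefly, cells in 96-well plates were exposed to five compound concentrations for 48 h, and endpoints were estimated by linear interpolation. The concentration for 50% growth inhibition is given as GI50. Definition used: TGI = concentration required for complete inhibition of growth.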

Tests used:
Assay in all cases: inhibition of tumour cell growth, NCI panel, 48 h
[1] = tested on: DU-145 prostate
[2] = tested on: K-562 leukemia
[3] = tested on: SN12C renal
[4] = tested on: OVCAR-8 ovarian
[5] = tested on: COLO 205 colon
[6] = tested on: MDA-MB-231 breast
[7] = tested on: SK-MEL-5 melanoma
[8] = tested on: SK-OV-3 ovarian
[9] = tested on: A498 renal
[10] = tested on: SNB-19 CNS
[11] = tested on: U251 CNS
[12] = tested on: RPMI-8226 leukemia
[13] = tested on: SF-295 CNS
[14] = tested on: SK-MEL-28 melanoma
[15] = tested on: A549 NSCLC
[16] = tested on: MOLT-4 leukemia
[17] = tested on: SNB-75 CNS
[18] = tested on: HT29 colon
[19] = tested on: OVCAR-5 ovarian
[20] = tested on: CAKI-1 renal
[21] = tested on: SF-539 CNS
[22] = tested on: UACC-257 melanoma
[23] = tested on: OVCAR-3 ovarian
[24] = tested on: UO-31 renal
[25] = tested on: NCI-H23 lung
[26] = tested on: NCI-H460 lung
[27] = tested on: MDA-MB-435
[28] = tested on: HL-60(TB) leukemia
[29] = tested on: ACHN renal
[30] = tested on: LOX IMVI melanoma
[31] = tested on: HCT-116 colon
[32] = tested on: BT-549 breast
[33] = tested on: HCC-2998 colon
[34] = tested on: HS 578T breast
[35] = tested on: OVCAR-4 ovarian
[36] = tested on: MCF7 breast
[37] = tested on: SK-MEL-2 melanoma
[38] = tested on: EKVX NSCLC
[39] = tested on: 786-0 renal
[40] = tested on: CCRF-CEM leukemia
[41] = tested on: PC-3 prostate
[42] = tested on: SR leukemia
[43] = tested on: SW-620 colon
[44] = tested on: HOP-92 NSCLC
[45] = tested on: HCT-15 colon
[46] = tested on: NCI-H226 lung
[47] = tested on: NCI/ADR-RES ovarian
[48] = tested on: RXF 393 renal
[49] = tested on: SF-268 CNS
[50] = tested on: MALME-3M melanoma
[51] = tested on: TK-10 renal
[52] = tested on: KM12 colon
[53] = tested on: HOP-62 NSCLC
[54] = tested on: UACC-62 melanoma
[55] = tested on: IGROV1 ovarian
[56] = tested on: M14 melanoma
[57] = tested on: NCI-H522 lung
[58] = tested on: T-47D breast

With `CCOc1ccccc1/C=N\N=C(N/N=C/c1ccccc1OCC)N/N=C/c1ccccc1OCC` the GI50 [1] was 2.45 µM, the TGI [1] was greater than 100 µM and the GI50 [2] was 3.76 µM. The TGI [2] was greater than 100 µM, the GI50 [3] was 2.32 µM and the TGI [3] was greater than 100 µM. For the same compound, the GI50 [4] was 3.01 µM, the TGI [4] was greater than 100 µM and the GI50 [5] was 1.43 µM. The TGI [5] was 2.98 µM, the GI50 [6] was 1.73 µM and the TGI [6] was 7.52 µM. For the same compound, the GI50 [7] was 1.69 µM, the TGI [7] was 3.71 µM and the GI50 [8] was 1.65 µM. For the same compound, the TGI [8] was 6.15 µM, the GI50 [9] was 2.17 µM and the TGI [9] was 8.45 µM. It also gave a GI50 [10] of 2.2 µM, a TGI [10] greater than 100 µM and a GI50 [11] of 1.53 µM. It also gave a TGI [11] greater than 100 µM, a GI50 [12] of 1.73 µM and a TGI [12] greater than 100 µM. It also gave a GI50 [13] of 2.41 µM, a TGI [13] greater than 100 µM and a GI50 [14] of 4.38 µM. For the same compound, the TGI [14] was greater than 100 µM, the GI50 [15] was 2.65 µM and the TGI [15] was greater than 100 µM. It also gave a GI50 [16] of 4.69 µM, a TGI [16] greater than 100 µM and a GI50 [17] of 2.2 µM. For the same compound, the TGI [17] was greater than 100 µM, the GI50 [18] was 2.23 µM and the TGI [18] was greater than 100 µM. For the same compound, the GI50 [19] was 2.52 µM, the TGI [19] was greater than 100 µM and the GI50 [20] was 1.4 µM. The TGI [20] was greater than 100 µM, the GI50 [21] was 2.41 µM and the TGI [21] was greater than 100 µM. For the same compound, the GI50 [22] was 3.12 µM, the TGI [22] was greater than 100 µM and the GI50 [23] was 0.532 µM. For the same compound, the TGI [23] was 6.79 µM, the GI50 [24] was 1.73 µM and the TGI [24] was greater than 100 µM. The GI50 [25] was 2.77 µM, the TGI [25] was greater than 100 µM and the GI50 [26] was 1.35 µM. For the same compound, the TGI [26] was greater than 100 µM, the GI50 [27] was 3.44 µM and the TGI [27] was greater than 100 µM. The GI50 [28] was 5.21 µM, the TGI [28] was greater than 100 µM and the GI50 [29] was 1.56 µM. The TGI [29] was greater than 100 µM, the GI50 [30] was 1.8 µM and the TGI [30] was greater than 100 µM. The GI50 [31] was 0.763 µM, the TGI [31] was greater than 100 µM and the GI50 [32] was 2.67 µM. It also gave a TGI [32] greater than 100 µM, a GI50 [33] of 0.826 µM and a TGI [33] greater than 100 µM. For the same compound, the GI50 [34] was 2.22 µM, the TGI [34] was 8.39 µM and the GI50 [35] was 1.17 µM. The TGI [35] was greater than 100 µM, the GI50 [36] was 0.715 µM and the TGI [36] was greater than 100 µM. The GI50 [37] was 2.78 µM, the TGI [37] was greater than 100 µM and the GI50 [38] was 3.04 µM. It also gave a TGI [38] greater than 100 µM, a GI50 [39] of 2.71 µM and a TGI [39] greater than 100 µM. The GI50 [40] was 3.21 µM, the TGI [40] was greater than 100 µM and the GI50 [41] was 2.06 µM. The TGI [41] was greater than 100 µM, the GI50 [42] was 3.23 µM and the TGI [42] was greater than 100 µM. It also gave a GI50 [43] of 3.24 µM, a TGI [43] greater than 100 µM and a GI50 [44] of 1.24 µM. It also gave a TGI [44] of 5.63 µM, a GI50 [45] of 0.95 µM and a TGI [45] greater than 100 µM. For the same compound, the GI50 [46] was 2.74 µM, the TGI [46] was greater than 100 µM and the GI50 [47] was 1.7 µM. It also gave a TGI [47] greater than 100 µM, a GI50 [48] of 2.67 µM and a TGI [48] greater than 100 µM. It also gave a GI50 [49] of 1.62 µM, a TGI [49] greater than 100 µM and a GI50 [50] of 5.69 µM. It also gave a TGI [50] greater than 100 µM, a GI50 [51] of 2.81 µM and a TGI [51] greater than 100 µM. It also gave a GI50 [52] of 1.72 µM, a TGI [52] greater than 100 µM and a GI50 [53] of 1.85 µM. For the same compound, the TGI [53] was greater than 100 µM, the GI50 [54] was 2.05 µM and the TGI [54] was greater than 100 µM. The GI50 [55] was 3.04 µM and the TGI [55] was greater than 100 µM.

Work on `CCN(CC)CCCNc1ccc([N+](=O)[O-])c2nc3ccccc3c(N)c12` yielded a TGI [1] greater than 10 µM, a TGI [2] of 2.35 µM and a TGI [3] greater than 10 µM. For the same compound, the TGI [4] was 4.51 µM, the TGI [6] was 2.09 µM and the TGI [7] was 1.53 µM. The TGI [8] was 3.4 µM, the TGI [9] was 9.95 µM and the TGI [10] was 5.5 µM. It also gave a TGI [56] of 2.43 µM, a TGI [12] of 8.35 µM and a TGI [13] of 1.87 µM. The TGI [14] was greater than 10 µM, the TGI [15] was 2.11 µM and the TGI [16] was 4.29 µM. It also gave a TGI [17] of 2.42 µM, a TGI [18] of 1.81 µM and a TGI [19] of 3.43 µM. For the same compound, the TGI [20] was greater than 10 µM, the TGI [21] was 1.88 µM and the TGI [22] was greater than 10 µM. It also gave a TGI [23] of 8.75 µM, a TGI [24] greater than 10 µM and a TGI [25] of 2.76 µM. It also gave a TGI [26] of 1.44 µM, a TGI [27] of 2.9 µM and a TGI [28] of 2.92 µM. For the same compound, the TGI [30] was 2.14 µM, the TGI [31] was 1.48 µM and the TGI [32] was 3.32 µM. The TGI [34] was 1.91 µM, the TGI [35] was 1.94 µM and the TGI [36] was 2.24 µM. The TGI [37] was 2.53 µM, the TGI [38] was 2.86 µM and the TGI [39] was 1.72 µM. For the same compound, the TGI [40] was 2.91 µM, the TGI [41] was 2.25 µM and the TGI [42] was 4.56 µM. For the same compound, the TGI [43] was 2.04 µM, the TGI [44] was greater than 10 µM and the TGI [45] was 2.55 µM. It also gave a TGI [46] greater than 10 µM, a TGI [47] of 2.65 µM and a TGI [48] of 1.52 µM. It also gave a TGI [49] greater than 10 µM, a TGI [50] greater than 10 µM and a TGI [51] greater than 10 µM. For the same compound, the TGI [52] was 1.7 µM, the TGI [53] was greater than 10 µM and the TGI [54] was greater than 10 µM. The TGI [55] was 2.6 µM.

`O=C(O)CCC(NC(=O)c1ccc(Oc2nc3ccccc3nc2C(=O)O)cc1)C(=O)O` (configuration not stated) showed a TGI [1] greater than 100 µM, a TGI [2] greater than 100 µM and a TGI [4] greater than 100 µM. For the same compound, the TGI [5] was greater than 100 µM, the TGI [6] was greater than 100 µM and the TGI [7] was greater than 100 µM. For the same compound, the TGI [8] was greater than 100 µM, the TGI [9] was greater than 100 µM and the TGI [10] was greater than 100 µM. It also gave a TGI [56] greater than 100 µM, a TGI [11] greater than 100 µM and a TGI [12] greater than 100 µM. For the same compound, the TGI [13] was greater than 100 µM, the TGI [14] was greater than 100 µM and the TGI [15] was greater than 100 µM. It also gave a TGI [16] greater than 100 µM, a TGI [17] greater than 100 µM and a TGI [18] greater than 100 µM. The TGI [19] was greater than 100 µM, the TGI [20] was greater than 100 µM and the TGI [22] was greater than 100 µM. For the same compound, the TGI [23] was greater than 100 µM, the TGI [24] was greater than 100 µM and the TGI [25] was greater than 100 µM. It also gave a TGI [26] greater than 100 µM, a TGI [27] greater than 100 µM and a TGI [28] greater than 100 µM. The TGI [29] was greater than 100 µM, the TGI [30] was greater than 100 µM and the TGI [57] was greater than 100 µM. The TGI [31] was greater than 100 µM, the TGI [32] was greater than 100 µM and the TGI [33] was greater than 100 µM. The TGI [34] was greater than 100 µM, the TGI [35] was greater than 100 µM and the TGI [37] was greater than 100 µM. It also gave a TGI [58] greater than 100 µM, a TGI [38] greater than 100 µM and a TGI [39] greater than 100 µM. It also gave a TGI [40] greater than 100 µM, a TGI [41] greater than 100 µM and a TGI [42] greater than 100 µM. The TGI [43] was greater than 100 µM, the TGI [44] was greater than 100 µM and the TGI [45] was greater than 100 µM. It also gave a TGI [46] greater than 100 µM, a TGI [47] greater than 100 µM and a TGI [48] greater than 100 µM. It also gave a TGI [49] greater than 100 µM, a TGI [50] greater than 100 µM and a TGI [51] greater than 100 µM. The TGI [52] was greater than 100 µM, the TGI [53] was greater than 100 µM and the TGI [54] was greater than 100 µM. It also gave a TGI [55] greater than 100 µM.
